Patent publication US11795169B2, “MAP4K4 inhibitors” (IMPERIAL COLLEGE INNOVATIONS LIMITED, priority 2017, dated 2023)
Like-named read-outs stand apart in the source and are kept apart here.

Experiments:
[1] = system: mice undergoing experimental myocardial infarction; assay: Experimental myocardial infarction in mice (infarct size, TUNEL staining); format: in vivo; details: for reduction in infarct size as a proportion of the area at ischemic risk: 50 mg kg−1 twice by gavage
Experimental: To test if target validation and compound development in hiPSC-CMs might predict success in a whole-animal context, mice undergoing experimental myocardial infarction were treated with Ex-58 or the vehicle control (FIG. 9). […] Treatment was begun either 20 min prior to ischemia (FIG. 9D), or 1 h after reperfusion injury (FIG. 9E, F), the latter having greater relevance to potential clinical benefits.

[2] = system: Cyp; assay: Cyp Inhibition; format: in vitro ADME
[3] = target: MINK1/MAP4K6 (Homo sapiens (Human), UniProt Q8N4C8); assay: Kinase selectivity panel: MINK1/MAP4K6; format: biochemical
From the text: (§1) Compounds of the present invention were screened for their inhibitory activity against MAP4K4, versus selected off-target hits found with early members of this chemical series. MAP4K4 kinase activity was monitored using the CisBio HTRF Transcreener ADP assay, acompetitive immunoassay with a reproducible Z′>0.6. In the detection step, endogenous ADP and d2-labeled ADP compete for binding an anti-ADP monoclonal antibody labelled with Eu^3+ cryptate. A ratiometric fluorescent read-out is used at 665 and 620 nm. […] Assays were run in Greiner low volume plates with a final reaction volume of 10 μl. The MAP4K4 inhibition data are provided in Table 33 below for selected compounds of the present invention. The data has been categorised based on the IC50 value of the compound as “A”, “B” or “C”.
(§2) The data in Table 34 also provides the fold selectivity of the two compounds in favour of MAP4K4 over the tested kinase. The fold selectivity is indicated in parenthesis.

[4] = system: hiPSC-CMs; assay: Calcium cycling in hiPSC-CMs (Fura-2) under menadione; format: cell-based, human
Experimental: Calcium cycling, a hallmark of the cardiac phenotype, likewise is susceptible to redox- and phosphorylation-dependent abnormalities. To determine whether MAP4K4 inhibition might preserve calcium homeostasis, hiPSC-CMs were assessed using the intracellular calcium indicator, Fura-2 (FIG. 8B). […] At 50 μM menadione, spontaneous calcium oscillations persisted in only 8 of 24 cultures (33.3%), versus 21 of 24 receiving 10 μM Ex-58 (87.5%; P<0.001).

[5] = target: human MAP4K4 kinase domain (Homo sapiens (Human), UniProt O95819); assay: MAP4K4 kinase activity, CisBio HTRF Transcreener ADP assay; format: biochemical
From the text: as §1

[6] = Plasma protein binding (PPB); format: in vitro ADME; details: plasma
[7] = target: GLK/MAP4K3 (Homo sapiens (Human), UniProt Q8IVH8); assay: Kinase selectivity panel: GLK/MAP4K3; format: biochemical
From the text: as §1, §2

[8] = system: CorV.4U hiPSC-CMs; assay: Mitochondrial function in CorV.4U hiPSC-CMs after acute oxidative stress (menadione); format: cell-based, human; details: 10 μM compound, 15 μM menadione for 2 h
Experimental: Key aspects of mitochondrial function were monitored in CorV.4U hiPSC-CMs after acute oxidative stress (15 μM menadione for 2 h), with or without Ex-58 (FIG. 8A).

[9] = system: NUAK; assay: Kinase selectivity panel: NUAK; format: biochemical
Experimental: (§3) In the detection step, endogenous ADP and d2-labeled ADP compete for binding an anti-ADP monoclonal antibody labelled with Eu^3+ cryptate. […] Assays were run in Greiner low volume plates with a final reaction volume of 10 μl.
(§4) The fold selectivity is indicated in parenthesis.

[10] = target: KHS/MAP4K5 (Homo sapiens (Human), UniProt Q9Y4K4); assay: Kinase selectivity panel: KHS/MAP4K5; format: biochemical
Sequence of KHS/MAP4K5 (Q9Y4K4 whole entry): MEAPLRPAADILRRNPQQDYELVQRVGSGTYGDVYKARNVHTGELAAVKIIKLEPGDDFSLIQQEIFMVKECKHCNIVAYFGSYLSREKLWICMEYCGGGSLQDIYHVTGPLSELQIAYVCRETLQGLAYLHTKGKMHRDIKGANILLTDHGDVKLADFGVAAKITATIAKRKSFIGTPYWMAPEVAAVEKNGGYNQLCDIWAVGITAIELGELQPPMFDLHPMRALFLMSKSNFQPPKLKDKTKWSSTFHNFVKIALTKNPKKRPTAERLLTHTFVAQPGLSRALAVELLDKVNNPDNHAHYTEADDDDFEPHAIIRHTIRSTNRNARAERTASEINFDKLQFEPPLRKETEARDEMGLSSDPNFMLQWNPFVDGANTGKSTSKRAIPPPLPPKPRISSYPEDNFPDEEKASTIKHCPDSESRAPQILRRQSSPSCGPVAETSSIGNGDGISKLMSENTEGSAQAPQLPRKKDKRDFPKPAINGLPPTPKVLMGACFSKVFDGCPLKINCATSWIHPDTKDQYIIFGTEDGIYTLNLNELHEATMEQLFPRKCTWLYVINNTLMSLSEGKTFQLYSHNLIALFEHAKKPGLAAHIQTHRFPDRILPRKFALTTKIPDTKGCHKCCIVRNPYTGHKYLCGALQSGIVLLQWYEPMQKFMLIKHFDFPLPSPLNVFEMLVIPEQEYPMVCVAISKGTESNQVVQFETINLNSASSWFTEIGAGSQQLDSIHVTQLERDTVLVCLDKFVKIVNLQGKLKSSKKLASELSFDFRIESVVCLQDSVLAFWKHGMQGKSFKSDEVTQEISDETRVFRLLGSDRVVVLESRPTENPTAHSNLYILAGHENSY
From the text: as §1, §2

[11] = target: FLT3 (Homo sapiens (Human), UniProt P36888); assay: Kinase selectivity panel: FLT3; format: biochemical
Sequence of FLT3 (P36888 27-993, species assumed): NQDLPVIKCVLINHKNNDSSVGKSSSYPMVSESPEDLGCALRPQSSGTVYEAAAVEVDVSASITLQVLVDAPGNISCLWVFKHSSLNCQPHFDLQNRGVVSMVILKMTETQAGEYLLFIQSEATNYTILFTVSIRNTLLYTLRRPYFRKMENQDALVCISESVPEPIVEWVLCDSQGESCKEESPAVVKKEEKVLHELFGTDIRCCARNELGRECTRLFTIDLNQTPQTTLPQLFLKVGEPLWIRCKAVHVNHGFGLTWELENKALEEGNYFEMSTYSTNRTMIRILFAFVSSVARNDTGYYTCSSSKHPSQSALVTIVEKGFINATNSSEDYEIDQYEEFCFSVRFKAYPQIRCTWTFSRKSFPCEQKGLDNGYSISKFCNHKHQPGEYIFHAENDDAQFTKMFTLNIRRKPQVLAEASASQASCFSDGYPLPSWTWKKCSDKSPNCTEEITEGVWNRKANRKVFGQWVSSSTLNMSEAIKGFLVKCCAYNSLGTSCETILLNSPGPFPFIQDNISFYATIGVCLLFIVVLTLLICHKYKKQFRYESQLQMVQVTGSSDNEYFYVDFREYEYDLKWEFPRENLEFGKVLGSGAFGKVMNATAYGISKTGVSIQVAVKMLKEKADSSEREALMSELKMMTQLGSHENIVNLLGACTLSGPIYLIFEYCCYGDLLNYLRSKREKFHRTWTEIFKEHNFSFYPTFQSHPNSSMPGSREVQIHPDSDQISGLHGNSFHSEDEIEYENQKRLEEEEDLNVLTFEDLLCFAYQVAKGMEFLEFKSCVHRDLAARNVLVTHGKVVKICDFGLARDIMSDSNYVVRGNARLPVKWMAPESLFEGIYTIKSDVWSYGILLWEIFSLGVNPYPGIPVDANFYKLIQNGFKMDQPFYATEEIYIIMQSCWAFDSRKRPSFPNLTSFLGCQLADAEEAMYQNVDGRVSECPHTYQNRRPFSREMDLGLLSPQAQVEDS
From the text: as §1, §2

[12] = target: MLK3/MAP3K11 (Homo sapiens (Human), UniProt Q16584); assay: Kinase selectivity panel: MLK3/MAP3K11; format: biochemical
Sequence of MLK3/MAP3K11 (Q16584 whole entry): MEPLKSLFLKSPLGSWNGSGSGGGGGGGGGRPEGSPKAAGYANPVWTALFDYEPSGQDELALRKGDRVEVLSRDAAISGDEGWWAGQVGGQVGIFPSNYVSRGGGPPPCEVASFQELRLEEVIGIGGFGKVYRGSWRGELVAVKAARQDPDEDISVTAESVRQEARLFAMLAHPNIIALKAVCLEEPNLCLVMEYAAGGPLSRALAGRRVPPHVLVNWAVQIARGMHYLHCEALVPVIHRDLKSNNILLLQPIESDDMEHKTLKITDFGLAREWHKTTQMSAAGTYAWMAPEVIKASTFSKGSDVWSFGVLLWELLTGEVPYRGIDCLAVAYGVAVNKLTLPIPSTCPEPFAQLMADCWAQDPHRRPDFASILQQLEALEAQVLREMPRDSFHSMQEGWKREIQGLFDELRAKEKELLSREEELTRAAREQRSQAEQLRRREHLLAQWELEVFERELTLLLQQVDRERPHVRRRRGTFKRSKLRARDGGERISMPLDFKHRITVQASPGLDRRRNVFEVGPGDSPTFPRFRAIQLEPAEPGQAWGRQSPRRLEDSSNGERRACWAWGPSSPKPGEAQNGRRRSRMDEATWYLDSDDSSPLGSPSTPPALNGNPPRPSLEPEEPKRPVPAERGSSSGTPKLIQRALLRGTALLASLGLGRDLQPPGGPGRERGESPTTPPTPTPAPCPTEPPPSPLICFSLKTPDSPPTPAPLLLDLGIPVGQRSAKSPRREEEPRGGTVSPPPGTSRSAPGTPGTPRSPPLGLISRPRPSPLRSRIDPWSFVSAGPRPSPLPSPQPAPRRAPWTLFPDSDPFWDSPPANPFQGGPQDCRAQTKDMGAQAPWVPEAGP
From the text: as §1, §2

[13] = target: GSK3β (Homo sapiens (Human), UniProt P49841); assay: Kinase selectivity panel: GSK3β; format: biochemical
Sequence of GSK3β (P49841 whole entry, species assumed): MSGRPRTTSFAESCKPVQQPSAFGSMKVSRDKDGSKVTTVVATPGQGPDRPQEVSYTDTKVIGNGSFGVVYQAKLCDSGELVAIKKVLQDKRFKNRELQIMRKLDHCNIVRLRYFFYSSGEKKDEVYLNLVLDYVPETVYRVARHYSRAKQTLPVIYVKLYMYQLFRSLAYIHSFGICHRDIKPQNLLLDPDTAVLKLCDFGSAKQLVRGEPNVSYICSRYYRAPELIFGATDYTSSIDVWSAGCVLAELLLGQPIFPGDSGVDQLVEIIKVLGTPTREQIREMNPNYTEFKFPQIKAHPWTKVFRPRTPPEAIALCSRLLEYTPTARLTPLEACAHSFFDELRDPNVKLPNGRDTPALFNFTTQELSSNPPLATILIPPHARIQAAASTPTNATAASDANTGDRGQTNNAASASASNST
From the text: as §1, §2

[14] = target: GCK/MAP4K2 (Homo sapiens (Human), UniProt Q12851); assay: Kinase selectivity panel: GCK/MAP4K2; format: biochemical
Sequence of GCK/MAP4K2 (Q12851 whole entry): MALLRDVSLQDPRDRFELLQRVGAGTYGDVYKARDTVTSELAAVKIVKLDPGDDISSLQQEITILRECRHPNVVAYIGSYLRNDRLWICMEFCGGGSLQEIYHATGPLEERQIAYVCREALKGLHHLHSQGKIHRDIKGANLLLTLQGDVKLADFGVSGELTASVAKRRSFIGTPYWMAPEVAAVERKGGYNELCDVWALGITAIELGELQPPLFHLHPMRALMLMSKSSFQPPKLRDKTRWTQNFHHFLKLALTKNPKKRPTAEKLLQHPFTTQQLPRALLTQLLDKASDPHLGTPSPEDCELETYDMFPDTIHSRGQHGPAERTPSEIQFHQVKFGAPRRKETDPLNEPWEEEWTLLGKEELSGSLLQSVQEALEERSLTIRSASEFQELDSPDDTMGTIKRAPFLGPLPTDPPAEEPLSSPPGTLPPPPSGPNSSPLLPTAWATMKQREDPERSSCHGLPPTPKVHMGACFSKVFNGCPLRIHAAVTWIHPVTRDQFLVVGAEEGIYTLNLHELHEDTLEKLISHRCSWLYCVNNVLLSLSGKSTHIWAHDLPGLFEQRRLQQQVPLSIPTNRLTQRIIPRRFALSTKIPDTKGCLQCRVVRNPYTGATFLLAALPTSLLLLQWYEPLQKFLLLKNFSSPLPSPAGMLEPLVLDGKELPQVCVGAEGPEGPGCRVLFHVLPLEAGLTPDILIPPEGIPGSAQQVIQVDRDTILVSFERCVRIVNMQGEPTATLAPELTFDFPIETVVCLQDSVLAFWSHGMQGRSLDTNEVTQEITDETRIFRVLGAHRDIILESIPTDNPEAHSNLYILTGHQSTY
From the text: as §1, §2

[15] = target: MLK1/MAP3K9 (Homo sapiens (Human), UniProt P80192); assay: Kinase selectivity panel: MLK1/MAP3K9; format: biochemical
From the text: as §1, §2

[16] = target: Aurora B (Homo sapiens (Human), UniProt Q96GD4); assay: Kinase selectivity panel: Aurora B; format: biochemical
From the text: as §1, §2

[17] = mouse, in vivo; for AUCinf: po, 50 mg/kg
[18] = system: H9c2 cardiomyocytes; assay: Protection of H9c2 cardiomyocytes; format: cell-based
[19] = system: CorV.4U cardiomyocytes (hiPSC-CMs); assay: Protection of CorV.4U cardiomyocytes from H2O2 or menadione (luminescent cell viability assay, human cardiac troponin assay); format: cell-based
From the text: To substantiate the hypothesis that pharmacological inhibition of MAP4K4 would confer resistance to cell death in human cardiomyocytes, cytoprotection was next assessed using hiPSC-CMs.

[20] = target: ABL1 (Homo sapiens (Human), UniProt P00519); assay: Kinase selectivity panel: ABL1; format: biochemical
Sequence of ABL1 (P00519 whole entry, species assumed): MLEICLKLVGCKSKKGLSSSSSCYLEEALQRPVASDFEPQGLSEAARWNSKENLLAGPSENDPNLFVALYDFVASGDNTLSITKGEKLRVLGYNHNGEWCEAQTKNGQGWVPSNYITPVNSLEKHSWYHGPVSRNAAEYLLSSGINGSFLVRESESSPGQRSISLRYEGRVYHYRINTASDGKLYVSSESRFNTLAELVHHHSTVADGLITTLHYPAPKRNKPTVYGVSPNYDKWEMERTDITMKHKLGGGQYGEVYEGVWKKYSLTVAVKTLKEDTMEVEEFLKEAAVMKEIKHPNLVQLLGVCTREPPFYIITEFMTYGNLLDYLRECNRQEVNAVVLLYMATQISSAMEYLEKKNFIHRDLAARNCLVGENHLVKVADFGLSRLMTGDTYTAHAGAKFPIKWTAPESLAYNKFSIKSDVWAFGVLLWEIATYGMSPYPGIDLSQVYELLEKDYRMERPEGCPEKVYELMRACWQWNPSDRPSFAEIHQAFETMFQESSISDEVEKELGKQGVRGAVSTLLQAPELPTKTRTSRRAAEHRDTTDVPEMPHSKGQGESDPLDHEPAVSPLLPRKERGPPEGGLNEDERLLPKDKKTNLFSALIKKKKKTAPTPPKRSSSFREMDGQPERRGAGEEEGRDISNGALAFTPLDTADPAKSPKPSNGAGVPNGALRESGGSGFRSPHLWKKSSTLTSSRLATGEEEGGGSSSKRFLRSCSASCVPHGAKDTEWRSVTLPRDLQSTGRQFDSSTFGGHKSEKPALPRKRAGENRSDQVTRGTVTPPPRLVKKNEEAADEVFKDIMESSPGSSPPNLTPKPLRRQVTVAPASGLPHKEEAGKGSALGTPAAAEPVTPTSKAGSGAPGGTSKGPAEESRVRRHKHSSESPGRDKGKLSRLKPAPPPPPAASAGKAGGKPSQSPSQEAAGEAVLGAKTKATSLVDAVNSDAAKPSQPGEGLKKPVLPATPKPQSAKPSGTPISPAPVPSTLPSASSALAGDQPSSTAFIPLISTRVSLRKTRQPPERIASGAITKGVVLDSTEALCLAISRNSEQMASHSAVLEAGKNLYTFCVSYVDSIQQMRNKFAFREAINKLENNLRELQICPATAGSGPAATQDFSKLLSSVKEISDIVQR
From the text: as §1, §2

[21] = Resistance to degradation in hepatocyte microsomes (Heps); format: in vitro ADME
[22] = target: TNIK/MAP4K7 (Homo sapiens (Human), UniProt Q9UKE5); assay: Kinase selectivity panel: TNIK/MAP4K7; format: biochemical
From the text: as §1, §2

[23] = system: VEGFR; assay: Kinase selectivity panel: VEGFR; format: biochemical
Experimental: as §3, §4

[24] = Pharmacokinetics in mice (IV and oral)
[25] = system: iCell cardiomyocytes (hiPSC-CMs); assay: Human cardiac muscle cell death in iCell cardiomyocytes (DRAQ7 uptake); format: cell-based; details: 1.25 μM, lowest concentration tested
From the text: First, the expression of cardiomyocyte-specific markers and of MAP4K4 protein was validated (FIG. 5A, B). Two of three shRNAs directed against human MAP4K4 reduced expression >60%, with no extraneous effect on M/NK/MAP4K6 and TN/K/MAP4K7, the most closely related genes (FIG. 5C). Cell death was quantified by high-content analysis (FIG. 5D) as the loss of membrane integrity (DRAQ7 uptake) in successfully transduced (GFP^+) hiPSC-CMs (Myh6-RFP^+). Each of the two potent shRNAs conferred protection against H2O2: myocyte loss was reduced up to 50% (FIG. 5E).
To substantiate the hypothesis that pharmacological inhibition of MAP4K4 would confer resistance to cell death in human cardiomyocytes, cytoprotection was next assessed using hiPSC-CMs. […] Human cardiac muscle cell protection was substantiated in a second, independent line, CorV.4U cardiomyocytes, which are more highly enriched for ventricular myocytes.

[26] = ATP at Km (10 μM), 0.5 nM kinase domain, 2 h, read-out: MAP4K4

Structure (SMILES): COCCOc1ccc(-c2cn(-c3ccccc3)c3nc[nH]c(=O)c23)cc1 [Ex-58, 5-[4-(2-Methoxy-ethoxy)-phenyl]-7-phenyl-3,7-dihydro-pyrrolo[2,3-d]pyrimidin-4-one]
- reduction in infarct size as a proportion of the area at ischemic risk ([1]; begun 20 min prior to ischemia): more than 50%
- reduction in infarct size as a proportion of the area at ischemic risk ([1]; begun 1 h after reperfusion injury): > 60%
- In vivo efficacy (infarct size/area at risk), reduction ([1]; mice, experimental myocardial infarction): 65% reduction
- suppression of cardiomyocyte apoptosis (TUNEL) in the jeopardized adjacent myocardium ([1]; post-injury study): 52%
- suppression of cardiomyocyte apoptosis (TUNEL) within the infarct ([1]; post-injury study): 39%
- Cyp Inhibition [2]: >10 µM
- pIC50 MINK1/MAP4K6 [3]: 8.18
- cultures with persisting spontaneous calcium oscillations ([4]; 10 μM compound, 50 μM menadione, 21 of 24 cultures): 87.5%
- adverse effect on functional parameters ([4]; hiPSC-CMs, mitochondrial function and calcium cycling): no adverse effect
- greater potency than F1386-0303 [5]: 10 fold
- pIC50 MAP4K4 [5]: 8.55
- IC50 [5, 26]: ≤ 100 nM
- selectivity for MAP4K4 (in words) ([5]; compared to F1386-303, 13 other protein kinases): highly selective
- IC50 ([5]; read-out: MAP4K4, IC50): 3 nM
- fraction unbound ([6]; human, read-out: Human PPB % (converted)): 0.01
- fraction unbound ([6]; mouse, read-out: Mouse PPB % (converted)): 0.02
- fold selectivity for MAP4K4 over GLK/MAP4K3 [7]: (3981) fold
- pIC50 GLK/MAP4K3 [7]: 4.95
- extracellular acidification rate (glycolytic function) [8]: largely rescued
- fold selectivity for MAP4K4 over NUAK [9]: (47) fold
- pIC50 NUAK [9]: 6.88
- fold selectivity for MAP4K4 over KHS/MAP4K5 [10]: (153) fold
- pIC50 KHS/MAP4K5 [10]: 6.36
- fold selectivity for MAP4K4 over FLT3 [11]: (1148) fold
- pIC50 FLT3 [11]: 5.31
- fold selectivity for MAP4K4 over MLK3/MAP3K11 [12]: (36) fold
- pIC50 MLK3/MAP3K11 [12]: 6.99
- fold selectivity for MAP4K4 over GSK3β [13]: (7762) fold
- pIC50 GSK3β [13]: 4.66
- fold selectivity for MAP4K4 over GCK/MAP4K2 [14]: (112) fold
- pIC50 GCK/MAP4K2 [14]: 6.50
- fold selectivity for MAP4K4 over MLK1/MAP3K9 [15]: (23) fold
- pIC50 MLK1/MAP3K9 [15]: 7.19
- fold selectivity for MAP4K4 over Aurora B [16]: (560) fold
- pIC50 Aurora B [16]: 5.49
- AUCinf [17]: 63733
- Protection in H9c2 cardiomyocytes, efficacy relative to Ex-58 ([18]; H9c2 cardiomyocytes, relative to Ex-58): (1)
- EC50 ([18]; Rattus norvegicus, H9c2): 350 nM
- protection of human cardiomyocytes (in words) ([19]; CorV.4U cells, H2O2 and menadione, both viability assays): Protection of human cardiomyocytes was substantiated
- Protection in human iPSC-derived ventricular cardiomyocytes, H202, efficacy relative to Ex-58 ([19]; H2O2 as death trigger, relative to Ex-58): (1)
- EC50 ([19]; Homo sapiens, Cardiomyocyte, H2O2 as death trigger, read-out: Protection in human iPSC-derived ventricular cardiomyocytes, EC50 H202): 403 nM
- fold selectivity for MAP4K4 over ABL1 [20]: (560) fold
- pIC50 ABL1 [20]: 5.80
- Human Heps ([21]; human): ≤10
- Mouse Heps ([21]; mouse): 85
- Pig Heps ([21]; pig): 8
- Rat Heps ([21]; rat): 10
- pIC50 TNIK/MAP4K7 [22]: 7.96
- fold selectivity for MAP4K4 over VEGFR [23]: (675) fold
- pIC50 VEGFR [23]: 5.72
- improvement of free plasma concentration over the earlier compound ([24]; 50 mg kg-1 oral dose, versus F1386-0303): > 80 fold
- concentration at 1 h ([24]; mouse, plasma, po, 50 mg kg-1): 334 nM
- concentration at 10 h ([24]; mouse, plasma, po, 50 mg kg-1): 8 nM

Structure (SMILES): Oc1ncnc2c1c(-c1ccccc1)cn2-c1ccccc1 [F1386-0303, 5,7-diphenyl-7H-pyrrolo[2,3-d]pyrimidin-4-ol, reference compound]
- pIC50 MAP4K4 [5]: 7.46
- IC50 ([5]; read-out: IC50 (MAP4K4)): 34 nM
- pIC50 FLT3 [11]: 5.66
- pIC50 GSK3β [13]: 4.57
- pIC50 Aurora B [16]: 4.88
- reduction of human cardiac muscle cell death [25]: 50%
- clearance and oral exposure in mice (in words) [17]: rapidly cleared and accumulates only to low levels
- AUCinf [17]: 2162
- protection from H2O2 or menadione ([19]; 10 μM, luminescent cell viability assay, human cardiac troponin assay): virtually complete
- pIC50 ABL1 [20]: 4.52

Structure (SMILES): O=C1NCCN1c1ccc(-c2cn(-c3ccccc3)c3nc[nH]c(=O)c23)cc1 [Ex-61]
- IC50 ([3]; read-out: pIC50 MINK1/MAP4K6 (converted)): 7.94 nM
- IC50 [5, 26]: ≤ 100 nM
- IC50 ([5]; read-out: pIC50 MAP4K4 (converted)): 1.58 nM
- fold selectivity for MAP4K4 over GLK/MAP4K3 [7]: (31622) fold
- IC50 ([7]; read-out: pIC50 GLK/MAP4K3 (converted)): 31600 nM
- fold selectivity for MAP4K4 over NUAK [9]: (63) fold
- pIC50 NUAK [9]: 7.2
- fold selectivity for MAP4K4 over KHS/MAP4K5 [10]: (316) fold
- IC50 ([10]; read-out: pIC50 KHS/MAP4K5 (converted)): 1000 nM
- fold selectivity for MAP4K4 over FLT3 [11]: (31622) fold
- IC50 ([11]; read-out: pIC50 FLT3 (converted)): 31600 nM
- fold selectivity for MAP4K4 over MLK3/MAP3K11 [12]: (63) fold
- IC50 ([12]; read-out: pIC50 MLK3/MAP3K11 (converted)): 63.1 nM
- fold selectivity for MAP4K4 over GSK3β [13]: (31622) fold
- IC50 ([13]; read-out: pIC50 GSK3β (converted)): 31600 nM
- fold selectivity for MAP4K4 over GCK/MAP4K2 [14]: (316) fold
- IC50 ([14]; read-out: pIC50 GCK/MAP4K2 (converted)): 316 nM
- fold selectivity for MAP4K4 over MLK1/MAP3K9 [15]: (63) fold
- IC50 ([15]; read-out: pIC50 MLK1/MAP3K9 (converted)): 63.1 nM
- fold selectivity for MAP4K4 over Aurora B [16]: (31622) fold
- IC50 ([16]; read-out: pIC50 Aurora B (converted)): 31600 nM
- fold selectivity for MAP4K4 over ABL1 [20]: (794) fold
- IC50 ([20]; read-out: pIC50 ABL1 (converted)): 794 nM
- IC50 ([22]; read-out: pIC50 TNIK/MAP4K7 (converted)): 5.01 nM
- fold selectivity for MAP4K4 over VEGFR [23]: (501) fold
- pIC50 VEGFR [23]: 6.3
